Measurements published in ChEMBL document CHEMBL1201862, “PubChem BioAssay data set” (2004).
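Method: 48-hour compound exposure of cells in 96-well plates, five concentrations, linear interpolation of endpoints. GI50 is the concentration that inhibits growth by half.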 The source made the active and inactive calls. No stated cut-off is given here; in the data, active = GI50 up to about 1.1 µM and inactive = higher.

Key:
Test in all cases: NCI tumour cell line growth inhibition, 48 h
[1] = test system: BT-549
[2] = test system: CAKI-1
[3] = test system: SF-539
[4] = test system: NCI-H226
[5] = test system: KM12
[6] = test system: UO-31
[7] = test system: TK-10
[8] = test system: DU-145
[9] = test system: CCRF-CEM
[10] = test system: HOP-92
[11] = test system: OVCAR-3
[12] = test system: SR
[13] = test system: NCI-H522
[14] = test system: OVCAR-8
[15] = test system: MOLT-4
[16] = test system: SK-MEL-5
[17] = test system: SNB-19
[18] = test system: HL-60
[19] = test system: SNB-75

Row | Compound | GI50 [1] | GI50 [2] | GI50 [3] | GI50 [4] | GI50 [5] | GI50 [6] | GI50 [7] | GI50 [8] | GI50 [9] | GI50 [10] | GI50 [11] | GI50 [12] | GI50 [13] | GI50 [14] | GI50 [15] | GI50 [16] | GI50 [17] | GI50 [18] | GI50 [19]
1 | COc1ccc2c(c1)OCC1Cc3cccc(OC)c3OC21 (stereo not given) | 26.9 µM (inactive) | > 100 µM (inactive) | > 100 µM (inactive) | 67.3 µM (inactive) | 65 µM (inactive) | 30.3 µM (inactive) | 40.3 µM (inactive) | > 100 µM (inactive) | 40 µM (inactive) | > 100 µM (inactive) | 51.2 µM (inactive) | 59.7 µM (inactive) | 55.6 µM (inactive) | 45.8 µM (inactive) | 28 µM (inactive) | 17.7 µM (inactive) |  |  | 
2 | CCCCCCC(CCl)c1sc(-c2csc(CCNC(=O)OC(C)(C)C)n2)nc1C(=O)OC (stereo not given) | 18.5 µM (inactive) | 29 µM (inactive) | 21.4 µM (inactive) |  | 17.8 µM (inactive) | 14.9 µM (inactive) | 20.4 µM (inactive) | 33.7 µM (inactive) | 17.2 µM (inactive) | 40.8 µM (inactive) | 21.9 µM (inactive) | 3.94 µM (inactive) | 22 µM (inactive) | 24.6 µM (inactive) | 4.58 µM (inactive) | 4.37 µM (inactive) | 40.6 µM (inactive) | 17.3 µM (inactive) | 
3 | O=C1C2SC34c5c2c2ccccc2n5CCC3CCCN14 (stereo not given) | > 100 µM (inactive) | 48.4 µM (inactive) | > 100 µM (inactive) | > 100 µM (inactive) | > 100 µM (inactive) | > 100 µM (inactive) | 25.9 µM (inactive) | > 100 µM (inactive) |  | 34.9 µM (inactive) | 65 µM (inactive) | > 100 µM (inactive) | 56.8 µM (inactive) | 83.8 µM (inactive) | > 100 µM (inactive) | > 100 µM (inactive) | 62.4 µM (inactive) | > 100 µM (inactive) | 
4 | c1ccc(-c2nnc(CCCCCCCCc3nnc(-c4ccccc4)o3)o2)cc1 | > 100 µM (inactive) | 46 µM (inactive) | > 100 µM (inactive) | > 100 µM (inactive) | 63.8 µM (inactive) | > 100 µM (inactive) | > 100 µM (inactive) | > 100 µM (inactive) | 52.5 µM (inactive) | 50.9 µM (inactive) | 65 µM (inactive) |  | 25.9 µM (inactive) | > 100 µM (inactive) | 51.4 µM (inactive) | > 100 µM (inactive) | > 100 µM (inactive) | 30.6 µM (inactive) | > 100 µM (inactive)
5 | Brc1ccc(/N=C/C=C(\Nc2ccc(Br)cc2)C23CC4CC(CC(C4)C2)C3)cc1 | 15.7 µM (inactive) | 11.4 µM (inactive) | 20 µM (inactive) | 97.3 µM (inactive) | 12.7 µM (inactive) | 17.7 µM (inactive) | 14.8 µM (inactive) | 14.5 µM (inactive) | 1.63 µM (inactive) | 13.6 µM (inactive) | 14.1 µM (inactive) |  | 10.9 µM (inactive) | 19.4 µM (inactive) | 6.07 µM (inactive) | 9.33 µM (inactive) | 29.6 µM (inactive) | 2.95 µM (inactive) | 17 µM (inactive)
6 | N#Cc1c(-c2ccc([N+](=O)[O-])cc2)cc(-c2ccc(Nc3ccnc4cc(C(F)(F)F)ccc34)cc2)[nH]c1=O | > 100 µM (inactive) | > 100 µM (inactive) | > 100 µM (inactive) | > 100 µM (inactive) |  | > 100 µM (inactive) | 52.2 µM (inactive) | 71.3 µM (inactive) | > 100 µM (inactive) |  |  | > 100 µM (inactive) | > 100 µM (inactive) | > 100 µM (inactive) | > 100 µM (inactive) | > 100 µM (inactive) | 24.4 µM (inactive) |  | > 100 µM (inactive)
7 | CO/C(=N\N=C\c1ccc(Cl)cc1Cl)c1ccncc1 | > 10 µM (inactive) | > 10 µM (inactive) |  | > 10 µM (inactive) | > 10 µM (inactive) | > 10 µM (inactive) | > 10 µM (inactive) | > 10 µM (inactive) | > 10 µM (inactive) | > 10 µM (inactive) | > 10 µM (inactive) | > 10 µM (inactive) | > 10 µM (inactive) | > 10 µM (inactive) | > 10 µM (inactive) |  | > 10 µM (inactive) | > 10 µM (inactive) | 
8 | COC(=O)[C@@]12CCCC(=O)[C@@H]1[C@H]1CCC[C@H]12 | > 100 µM (inactive) | > 100 µM (inactive) | > 100 µM (inactive) | > 100 µM (inactive) | > 100 µM (inactive) | > 100 µM (inactive) | > 100 µM (inactive) | > 100 µM (inactive) | > 100 µM (inactive) | > 100 µM (inactive) | > 100 µM (inactive) | > 100 µM (inactive) | > 100 µM (inactive) | > 100 µM (inactive) | > 100 µM (inactive) | > 100 µM (inactive) | > 100 µM (inactive) |  | > 100 µM (inactive)
9 | Clc1ccc(CSCCc2ccncc2)cc1Cl | 19.6 µM (inactive) | 38.5 µM (inactive) | 17 µM (inactive) | 22 µM (inactive) | 21.2 µM (inactive) | 21 µM (inactive) | 42.9 µM (inactive) | 29.2 µM (inactive) | 20.6 µM (inactive) | 13.1 µM (inactive) | 16.1 µM (inactive) |  | 15.4 µM (inactive) | 19.7 µM (inactive) | 15.8 µM (inactive) | 16.3 µM (inactive) | 17.8 µM (inactive) | 17 µM (inactive) | 22.9 µM (inactive)
10 | C/C=C/[C@H](O[Si](C)(C)C(C)(C)C)[C@@H](O)/C=C/C(=O)OCC | 31.8 µM (inactive) | 18.2 µM (inactive) | 23.9 µM (inactive) | 29.4 µM (inactive) | 18 µM (inactive) | 24 µM (inactive) | 27.9 µM (inactive) | 43.8 µM (inactive) | 14.3 µM (inactive) | 23.8 µM (inactive) | 19.6 µM (inactive) | 21.1 µM (inactive) | 16.7 µM (inactive) | 18.6 µM (inactive) | 18.6 µM (inactive) | 16.3 µM (inactive) | 14.3 µM (inactive) |  | 37.5 µM (inactive)
11 | CC(=O)Oc1ccc2[nH]c3c(C)c4cccc-4ccc3c2c1 | 2.34 µM (inactive) | 1.86 µM (inactive) |  | 1.38 µM (inactive) | 2.44 µM (inactive) | 1.76 µM (inactive) | 1.87 µM (inactive) | 3.27 µM (inactive) |  | 2.12 µM (inactive) | 1.62 µM (inactive) | 4.59 µM (inactive) | 1.63 µM (inactive) | 2.1 µM (inactive) | 3.13 µM (inactive) | 1.83 µM (inactive) | 2.04 µM (inactive) | 2.72 µM (inactive) | 
12 | Cc1cc(NCCCCCCCCCC[n+]2c(C)cc(N)c3ccccc32)c2ccccc2n1 | 1.86 µM (inactive) | 9.68 µM (inactive) | 1.82 µM (inactive) | 2.67 µM (inactive) | 0.2 µM (active) | 5.52 µM (inactive) | 1.82 µM (inactive) | 2.49 µM (inactive) | 0.472 µM (active) | 1.83 µM (inactive) | 0.975 µM (active) |  | 0.253 µM (active) | 0.875 µM (active) | 0.322 µM (active) | 0.112 µM (active) | 0.427 µM (active) | 0.0721 µM (active) | 0.853 µM (active)
